In patent US10647680B2, “Urea compound, preparation method therefor and medical use thereof” (Ancureall Pharmaceutical (Shanghai) Co., Ltd., priority 2016, dated 2020):
Read-outs that look alike come from different tables or passages of the source.

Tests used:
[1] = system: HCT116 (KRAS G13D mutant type); test: In vitro growth inhibition (GI50), HCT116; format: cell-based; conditions: Homo sapiens, HCT-116
Description: (§1) Tumor cell line is an effective cell model for studying the inhibition of tumor cell growth or proliferation in vitro. In the present invention, a representative tumor cell line was selected to determine the cell growth inhibition activity of the present compound. All cell lines used were from ATCC, DSMZ, and the Cell Bank of the Chinese Academy of Sciences. Cell culture conditions and methods were in accordance with the requirements of each cell line. Cells were subcultured in vitro for no more than 3 passages each time, and as required, single-clone purification and identification of cell lines could be carried out.
(§2) The cell culture media used were RPMI1640 (Gibco), MEM (Gibco), McCOY'S5A (Gibco), and IMDM (Gibco). The complete medium was prepared by supplement with 5˜20% fetal calf serum (Gibco), 1% double-antibiotics (10000 units/mL penicillin and 10000 units/mL), 2 mM glutamine or 1 mM sodium pyruvate, respectively.
(§3) Human large cell lung cancer cell NCI-H460 (KRAS […] mutant type, ATCC), human non-small cell lung cancer cell line H1299 (NRAS Q61K mutant type, ATCC), human melanoma cell line A375 (BRAF V600E mutant type, Shanghai Cell Bank of Chinese Academy of Sciences), human colon cancer cell line HCT116 (KRAS G13D mutant type, Shanghai Cell Bank, Chinese Academy of Sciences) were cultured in a complete medium of 1×RPMI1640 (10% FBS), respectively. Human non-small cell lung cancer cells A549 (KRAS G12S mutant type, Shanghai Cell Bank, Chinese Academy of Sciences) were cultured in a complete medium of 1× Ham's supplemented with 10% FBS, 1% double antibody, and 2 mM glutamine.
(§4) Adherent cells were digested with 0.25% pancreatin-EDTA (Gibco). The suspension cells were collected by centrifugation. The supernatant was discarded and the cell pellet was resuspended and counted. Different cell concentrations (5˜10×10^4 cells/mL) were prepared according to the growth cycle of each cell line and then seeded on a 96-well plate (Corning), 100 μL/well. The cells were incubated overnight at 37° C., 5% CO2. The compounds were added to the cells on the second day with 2 wells in parallel. The final concentration of organic solvent shall not exceed 1%. The cells were continually incubated for 3 to 5 days, and then subjected to MTT assay.
(§5) The compound of the present invention and the control compound were dissolved in DMSO (Sigma) respectively, with the purity of more than 98%. The compound was stored in a concentration of 10 mM at −20° C. and diluted to 2- or 10-fold series prior to use.
(§6) Dojindo CCK8 reagent kit was used as MTT assay. THERMO […] FC meter was used as microplate reader.
(§7) For adherent cells, culture medium was removed and immediately replaced with the fresh prepared medium which contains 10% CCK8 reagent (100 μL/well). For the suspension cells, CCK8 was directly added to 10% of the final concentration. The cells were continually incubated for 1˜4 h. When a dark yellow color could be observed in the solvent control wells, the absorbance value at OD450 nm was measured and the cell growth rate was calculated according to the following formula: Cell Growth Rate (%)=100*(T−T0)/(C−T0) T=optical density of drug treatment cell well—optical density of blank control well; T0=optical density of cell well before drug treatment—optical density of blank control well; C=optical density of cell well of solvent control group—optical density of blank control well. The concentration value of 50% inhibition of cell growth (GI50) was calculated according to the drug concentration and cell growth rate curve. The experiment was independently repeated 1˜3 times, and subject to biological statistical analysis. 4. Experimental Results
(§8) Tumor cell growth inhibition test was performed by selecting representative compounds (compounds 4, 11, 12, 16, 27, 68, 71, 77, 79, 89 and 116 of the present invention). The initial concentration of the compound was 5,000 nM, then it was serially diluted by 2-fold or 10-fold to 0.01 nM. […]

[2] = system: MV4-11 (FLT3 ITD+/+ mutant type); test: In vitro growth inhibition (GI50), MV4-11; format: cell-based, human; conditions: for growth inhibitory effect on MV4-11 (in words): FLT3-ITD positive cell line MV4-11; for GI50: Homo sapiens; for inhibition activity against the growth of MV4-11 cells compared with AC220: compared with the control compound AC220
[3] = system: A549 (KRAS G12S mutant type); test: In vitro growth inhibition (GI50), A549; format: cell-based; conditions: Homo sapiens; A549, KRAS Gl2S
Description: as §1, §2, §3, §4, §5, §6, §7, §8

[4] = system: OCI-AML3 (NPMc+ mutant type); test: In vitro growth inhibition (GI50), OCI-AML3; format: cell-based; conditions: Homo sapiens, OCI-AML-3; Cell lines of leukemia; read-out: GI 50 OCI- AML3 NPMc+
[5] = MV4-11, Cell lines of leukemia, read-out: GI 50 MV4-11 FLT3 (ITD +/+)
[6] = MV4-11, FLT3 ITD +/+, read-out: GI50
[7] = FLT3-ITD positive-expressing cell line MV4-11, Table 3, read-out: GI50 value, MV4-11

Structure (SMILES)	GI50 [1] [nM]	GI50 [2, 5] [nM]	GI50 [2, 6] [nM]	GI50 [3] [nM]	GI50 [4] [nM]	GI50 [2, 7] [nM]	growth inhibitory effect on MV4-11 (in words) [2]	inhibition activity against the growth of MV4-11 cells compared with AC220 [2]
COCCOc1ccc2c(c1)ncn2-c1ccc(NC(=O)Nc2cc(C(C)(C)C)n[nH]2)cc1 [Compound 77, 1-(5-tert-butyl-2H-pyrazol-3-yl)-3-{4-[5-(2-methoxyl-ethoxyl)-benzimidazol-1-yl]-phenyl}-urea]	> 2500	0.01 to 0.1	0.093	> 2500	> 1000	0.039 to 0.8	–	stronger inhibition activity
CC(C)(C)c1cc(NC(=O)Nc2ccc(-n3cnc4ccccc43)cc2)[nH]n1 [Compound 68, 1-(4-benzimidazol-1-yl-phenyl)-3-(5-tert-butyl-2H-pyrazol-3-yl)-urea]	> 2500	0.1 to 1	0.48	> 2500	> 1000	0.039 to 0.8	–	–
COc1ccc2c(c1)ncn2-c1ccc(NC(=O)Nc2cc(C(C)(C)C)n[nH]2)cc1 [Compound 71, 1-(5-tert-butyl-2H-pyrazol-3-yl)-3-[4-(5-methoxyl-benzimidazol-1-yl)-phenyl]-urea]	> 2500	0.01 to 0.1	0.039	> 2500	> 1000	0.039 to 0.8	–	stronger inhibition activity
CC(C)(C)c1cc(NC(=O)Nc2ccc(-n3cnc4cc(OCCN5CCOCC5)ccc43)cc2)no1 [Compound 16, 1-(5-tert-butyl-isoxazol-3-yl)-3-{4-[5-(2-morpholin-4-yl-ethoxyl)-benzimidazol-1-yl]-phenyl}-urea]	> 2500	0.1 to 1	0.48	> 2500	> 1000	0.039 to 0.8	–	–
CC(C)(C)c1cc(N)n(C(=O)Nc2ccc(-n3cnc4ccccc43)cc2)n1 [Compound 116, 5-amino-3-tert-butyl-pyrazol-1-carboxylic acid (4-benzimidazol-1-yl-phenyl)-amide]	> 2500	10 to 100	1.51	> 2500	> 1000	0.039 to 0.8	–	–
CC(C)(C)c1cc(NC(=O)Nc2ccc(-n3cnc4cc(OCCO)ccc43)cc2)no1 [Compound 11, 1-(5-tert-butyl-isoxazol-3-yl)-3-{4-[5-(2-hydroxy-ethoxyl)-benzimidazol-1-yl]-phenyl]-urea]	> 2500	0.01 to 0.1	0.07	> 2500	> 1000	–	strong growth inhibitory effects	stronger inhibition activity
CC(C)(C)c1cc(NC(=O)Nc2ccc(-n3cnc4ccc(OCCN5CCOCC5)cc43)cc2)no1 [Compound 27, 1-(5-tert-butyl-isoxazol-3-yl)-3-{4-[6-(2morpholin-4-yl-ethoxyl)-benzimidazol-1-yl]-phenyl}-urea]	> 2500	0.1 to 1	0.78	> 2500	100 to 1000	0.039 to 0.8	–	–

Second part, led by results:

GI50 [1] [nM]	GI50 [2, 5] [nM]	GI50 [2, 6] [nM]	GI50 [3] [nM]	GI50 [4] [nM]	GI50 [2, 7] [nM]	Structure (SMILES)	growth inhibitory effect on MV4-11 (in words) [2]	inhibition activity against the growth of MV4-11 cells compared with AC220 [2]
> 2500	0.01 to 0.1	0.047	> 2500	> 1000	–	CC(C)(C)c1cc(NC(=O)Nc2ccc(-n3cnc4cc(OCCO)ccc43)cc2)[nH]n1 [Compound 79, 1-(5-tert-butyl-2H-pyrazol-3-yl)-3-{4-[5-(2-hydroxy-ethoxyl)-benzimidazol-1-yl]-phenyl]urea]	strong growth inhibitory effects	stronger inhibition activity
> 2500	0.01 to 0.1	0.041	> 2500	100 to 1000	0.039 to 0.8	CC(C)(C)c1cc(NC(=O)Nc2ccc(-n3cnc4cc(OCCN5CCOCC5)ccc43)cc2)[nH]n1 [Compound 89, 1-(5-tert-butyl-2H-pyrazol-3-yl)-3-{4-[5-(2-morpholin-4-yl-ethoxyl)-benzimidazol-1-yl]-phenyl}-urea]	–	stronger inhibition activity
> 2500	0.1 to 1	0.12	> 2500	> 1000	–	CC(C)(C)c1cc(NC(=O)Nc2ccc(-n3cnc4cc(O)ccc43)cc2)no1 [Compound 4, 1-(5-tert-butyl-isoxazol-3-yl)-3-[4-(5-hydroxy-benzimidazol-1-yl)-phenyl]-urea]	strong growth inhibitory effects	–
